Test results reported in patent US20230117034A1, “PYRAZOLOTRIAZINES” (Bayer Aktiengesellschaft, priority 2019, published 2023).
Where two headings read alike, the source gives them in different places.

Legend:
[1] = test system: Human tumour cells (cell line panel); test: Proliferation assay: cell line panel (crystal violet, 4 days); assay type: cell-based; details: read-out: Result Category, IC50 (mean)
Source text: Human tumour cells were originally obtained from the American Type Culture Collection (ATCC), from Cell Line Services GmbH (CLS), from the Deutsche Sammlung von Mikroorganismen und Zellkulturen (DSMZ, German Collection of Microorganisms and Cell Cultures), from the Japanese Cancer Research Resources Bank (JCRB), from Public Health England, from the European Collection of Authenticated Cell Cultures (ECACC), from Asterand Biosciences, or from the National Cancer Institute (NCI). Cultivated tumour cells were plated at the density as indicated in Table 6 in 96-well multititer plates in 200 microL of their respective growth medium supplemented 10% fetal calf serum. After 24 hours, the cells of one plate (zero-point plate) were stained with crystal violet (see below), while the medium of the other plates was supplemented with the test substances in various concentrations (0 micromol/L, as well as in the range of 0.003-3 micromol/L; the final concentration of the solvent dimethyl sulfoxide was adjusted to 0.1%) using a Tecan HP D300 Digital Dispenser. The cells were incubated for 4 days in the presence of test substances. Cell proliferation was determined by staining the cells with crystal violet: the cells were fixed by adding 20 microL/measuring point of an 11% glutaric aldehyde solution for 15 minutes at room temperature. After three washing cycles of the fixed cells with water, the plates were dried at room temperature. The cells were stained by adding 100 microL/measuring point of a 0.1% crystal violet solution (pH 3.0). After three washing cycles of the stained cells with water, the plates were dried at room temperature. The dye was dissolved by adding 100 microL/measuring point of a 10% acetic acid solution. The extinction was determined by photometry at a wavelength of 595 nm. The change of cell number, in percent, was calculated by normalization of the measured values to the extinction values of the zero-point plate (=0%) and the extinction of the untreated (0 μM) cells (=100%). The […] values (inhibitory concentration at 50% of maximal effect) were determined by means of a 4 parameter fit.

[2] = test system: BRCA1 mRNA expression in CAL-120 cells; test: qRT-PCR assay: BRCA1 mRNA expression in CAL-120; assay type: cell-based; details: Homo sapiens; Inhibition of BRCA1 mRNA expression in CAL-120 cells; median; read-out: RTqPCR-CAL-120, IC50, BRCA1 (median)
Experimental: 3. qRT-PCR Assay: BRCA, ATR, MCL1 in MDA-MB-231, CAL-120
Tissue cultured human MDA-MB-231 human breast cancer cells were plated in 500 microL per well at 200,000 cells/well in a 24 well microtiter plate. After 24 h, the cells were exposed continuously for 24 h to test substances (substances were added with Tecan HP 0300 Dispenser). RNA was prepared using Qiagen RNeasy MiniKit (#74106), RNA was quantified using a NanoDrop Equipment, and 600 nano gamms of RNA was coverted to cDNA using a SuperScript VILO kit (Thermofisher #11755050) followed by qPCR amplification. BRCA1 and ATR gene expression was measured by RT-qPCR and normalised to GAPDH housekeeping gene expression. qPCR primer sets have been purchased from Thermo Fisher Scientific/Applied Biosystems: BRCA1, #Hs 01556193; ATR, #Hs 00992123; GAPDH, #Hs 03929097.

Brc1cnn2c(NCc3nc4ccccc4[nH]3)nc(N3CCOCC3)nc12 [Example 4, N-[(1H-benzimidazol-2-yl)methyl]-8-bromo-2-(morpholin-4-yl)pyrazolo[1,5-a][1,3,5]triazin-4-amine]
IC50 ([1]; A673, sarcoma, 5000 cells/well): ≤ 30 nM
IC50 ([1]; AU565, breast cancer, HER2 positive, 4000 cells/well): ≤ 30 nM
IC50 ([1]; BT-474, BT474, breast cancer, HER2 positive, 4000 cells/well): ≤ 30 nM
IC50 ([1]; BT-549, BT549, breast cancer, 4000 cells/well): ≤ 30 nM
IC50 ([1]; CAL-120, breast cancer, triple-negative, 4000 cells/well): ≤ 30 nM
IC50 ([1]; COV318, ovarian cancer, 4000 cells/well): ≥ 100 nM
IC50 ([1]; COV362, ovarian cancer, 4000 cells/well): ≥ 100 nM
IC50 ([1]; Calu-3, lung cancer, non-small cell, 4000 cells/well): 30 to 100 nM
IC50 ([1]; DLD-1, DLD1, colorectal cancer, 4000 cells/well): 30 to 100 nM
IC50 ([1]; DMS-79, DMS79, lung cancer, small cell, 5000 cells/well): 30 to 100 nM
IC50 ([1]; DU-145, DU145, prostate cancer, 3000 cells/well): ≥ 100 nM
IC50 ([1]; EFM-192A, EFM192A, breast cancer, HER2 positive, 4000 cells/well): 30 to 100 nM
IC50 ([1]; HCC70, breast cancer, triple-negative, 5000 cells/well): 30 to 100 nM
IC50 ([1]; HCC202, breast cancer, HER2 positive, 5000 cells/well): ≤ 30 nM
IC50 ([1]; HCC366, lung cancer, non-small cell, 4000 cells/well): 30 to 100 nM
IC50 ([1]; HCC1143, breast cancer, triple-negative, 4000 cells/well): ≤ 30 nM
IC50 ([1]; HCC1419, breast cancer, HER2 positive, 4000 cells/well): ≥ 100 nM
IC50 ([1]; HCC1599, breast cancer, triple-negative, 5000 cells/well): ≥ 100 nM
IC50 ([1]; HCC1806, breast cancer, triple-negative, 4000 cells/well): ≥ 100 nM
IC50 ([1]; HCC1937, breast cancer, triple-negative, 5000 cells/well): ≥ 100 nM
IC50 ([1]; HCC1954, breast cancer, HER2 positive, 4000 cells/well): ≤ 30 nM
IC50 ([1]; HCC2157, breast cancer, triple-negative, 5000 cells/well): ≤ 30 nM
IC50 ([1]; HCT-116, HCT116, colorectal cancer, 3000 cells/well): ≥ 100 nM
IC50 ([1]; HT-29, HT29, colorectal cancer, 2000 cells/well): ≤ 30 nM
IC50 ([1]; HT-144, melanoma, 4000 cells/well): ≥ 100 nM
IC50 ([1]; HUH-6clone5, liver cancer, 4000 cells/well): ≥ 100 nM
IC50 ([1]; HUH-7, liver cancer, 4000 cells/well): ≤ 30 nM
IC50 ([1]; HeLa, cervical cancer, 3000 cells/well): 30 to 100 nM
IC50 ([1]; JHH7, JHH-7, liver cancer, 4000 cells/well): ≤ 30 nM
IC50 ([1]; JHH-4, liver cancer, 4000 cells/well): 30 to 100 nM
IC50 ([1]; JIMT-1, JIMT1, breast cancer, HER2 positive, 4000 cells/well): ≤ 30 nM
IC50 ([1]; KYSE−410, estophageal cancer, 4000 cells/well): 30 to 100 nM
IC50 ([1]; LNCap, prostate cancer, 5000 cells/well): 30 to 100 nM
IC50 ([1]; Lovo, colorectal cancer, 4000 cells/well): 30 to 100 nM
IC50 ([1]; MCF7, breast cancer, 4000 cells/well): ≥ 100 nM
IC50 ([1]; MDA-MB-231, breast cancer, triple-negative, 4000 cells/well): ≤ 30 nM
IC50 ([1]; MDA-MB-361, breast cancer, HER2 positive, 5000 cells/well): 30 to 100 nM
IC50 ([1]; MDA-MB-436, breast cancer, triple-negative, 4000 cells/well): ≤ 30 nM
IC50 ([1]; MDA-MB-468, breast cancer, triple-negative, 4000 cells/well): ≤ 30 nM
IC50 ([1]; MKN-1, MKN1, gastric cancer, 4000 cells/well): 30 to 100 nM
IC50 ([1]; NCI-H23, lung cancer, non-small cell, 3000 cells/well): 30 to 100 nM
IC50 ([1]; NCI-H69, lung cancer, small cell, 4000 cells/well): 30 to 100 nM
IC50 ([1]; NCI-H82, lung cancer, small cell, 4000 cells/well): 30 to 100 nM
IC50 ([1]; NCI-H345, lung cancer, small cell, 5000 cells/well): 30 to 100 nM
IC50 ([1]; NCI-H446, lung cancer, small cell, 4000 cells/well): 30 to 100 nM
IC50 ([1]; NCI-H460, lung cancer, non-small cell, 3000 cells/well): ≥ 100 nM
IC50 ([1]; NCI-H526, lung cancer, small cell, 4000 cells/well): 30 to 100 nM
IC50 ([1]; NCI-H1155, lung cancer, non-small cell, 4000 cells/well): 30 to 100 nM
IC50 ([1]; NCI-H1299, lung cancer, non-small cell, 4000 cells/well): 30 to 100 nM
IC50 ([1]; NCI-H1623, lung cancer, non-small cell, 5000 cells/well): 30 to 100 nM
IC50 ([1]; NCI-H1734, lung cancer, non-small cell, 5000 cells/well): ≤ 30 nM
IC50 ([1]; NCI-H1793, lung cancer, non-small cell, 5000 cells/well): 30 to 100 nM
IC50 ([1]; NCI-H1836, lung cancer, small cell, 5000 cells/well): 30 to 100 nM
IC50 ([1]; NCI-H1838, lung cancer, non-small cell, 4000 cells/well): ≤ 30 nM
IC50 ([1]; NCI-H1975, lung cancer, non-small cell, 3000 cells/well): 30 to 100 nM
IC50 ([1]; NCI-H2009, lung cancer, non-small cell, 5000 cells/well): 30 to 100 nM
IC50 ([1]; NCI-H2029, lung cancer, small cell, 5000 cells/well): ≤ 30 nM
IC50 ([1]; NCI-H2030, lung cancer, non-small cell, 4000 cells/well): ≤ 30 nM
IC50 ([1]; NCI-H2405, lung cancer, non-small cell, 4000 cells/well): ≥ 100 nM
IC50 ([1]; NCI-N87, gastric cancer, 4000 cells/well): ≤ 30 nM
IC50 ([1]; OVCAR-3, OVCAR3, ovarian cancer, 5000 cells/well): 30 to 100 nM
IC50 ([1]; OVCAR-8, OVCAR8, ovarian cancer, 4000 cells/well): 30 to 100 nM
IC50 ([1]; PC-3, prostate cancer, 3000 cells/well): 30 to 100 nM
IC50 ([1]; PLC/PRF/5, liver cancer, 4000 cells/well): ≤ 30 nM
IC50 ([1]; SK-BR-3, breast cancer, HER2 positive, 5000 cells/well): ≤ 30 nM
IC50 ([1]; SK-HEP1, SK-HEP-1, liver cancer, 4000 cells/well): ≤ 30 nM
IC50 ([1]; SK-OV-3, ovarian cancer, 4000 cells/well): ≥ 100 nM
IC50 ([1]; SNU-449, SNU449, liver cancer, 4000 cells/well): 30 to 100 nM
IC50 ([1]; SUM149, breast cancer, triple-negative, 4000 cells/well): ≤ 30 nM
IC50 ([1]; SW480, colorectal cancer, 3000 cells/well): ≤ 30 nM
IC50 ([1]; SW-620, SW620, colorectal cancer, 3000 cells/well): ≤ 30 nM
IC50 ([1]; U2OS, U2-OS, sarcoma, 5000 cells/well): ≤ 30 nM
IC50 ([1]; U-251, U251MG, glioblastoma, 3000 cells/well): 30 to 100 nM
IC50 [2]: 7.06 nM
